Calls of active or inactive are those of the source. Cut-off read from the data, not from the text of the source, for most assays here: actives have a measured IC50 and inactives only a lower limit.
Experiments:
Assay type in all cases: functional
[1] = target: 72 kDa type IV collagenase (Homo sapiens, UniProt P08253); assay: Dose Response validation of uHTS RPN11 inhibitor hits using a MMP-2 Fluorescence assay.
Prothrombin = Prothrombin (Bos taurus, UniProt P00735); assay: thrombin protease inhibitors – biochemical, fluorescence polarization, uHTS hits, dose response (AID 602369)
[2] = target: 26S proteasome non-ATPase regulatory subunit 14 (Homo sapiens, UniProt O00487); assay: inhibition of proteasome subunit RPN11 – biochemical, fluorescence polarization, uHTS hits, confirmation (AID 602368)
Chain of 26S proteasome non-ATPase regulatory subunit 14 (O00487 whole entry): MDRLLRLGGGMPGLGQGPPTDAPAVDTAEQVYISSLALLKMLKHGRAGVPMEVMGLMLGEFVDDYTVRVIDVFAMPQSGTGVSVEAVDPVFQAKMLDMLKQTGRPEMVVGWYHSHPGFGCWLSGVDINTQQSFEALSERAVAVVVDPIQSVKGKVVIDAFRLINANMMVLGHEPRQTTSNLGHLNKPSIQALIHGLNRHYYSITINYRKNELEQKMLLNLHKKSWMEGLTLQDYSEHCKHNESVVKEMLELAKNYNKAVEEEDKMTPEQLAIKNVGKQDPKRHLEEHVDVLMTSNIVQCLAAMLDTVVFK

Protein RecA = target: T1, Protein RecA (Mycobacterium tuberculosis, UniProt P9WHJ3); assay: Fluorescence Cell-Free Homogeneous Dose Retest to Identify Inhibitors of RecA-Intein Splicing Activity. [Related pubchem assays (depositor defined):AID2097, AID2223, AID489010, AID492950]
T1 sequence (P9WHJ3 whole entry): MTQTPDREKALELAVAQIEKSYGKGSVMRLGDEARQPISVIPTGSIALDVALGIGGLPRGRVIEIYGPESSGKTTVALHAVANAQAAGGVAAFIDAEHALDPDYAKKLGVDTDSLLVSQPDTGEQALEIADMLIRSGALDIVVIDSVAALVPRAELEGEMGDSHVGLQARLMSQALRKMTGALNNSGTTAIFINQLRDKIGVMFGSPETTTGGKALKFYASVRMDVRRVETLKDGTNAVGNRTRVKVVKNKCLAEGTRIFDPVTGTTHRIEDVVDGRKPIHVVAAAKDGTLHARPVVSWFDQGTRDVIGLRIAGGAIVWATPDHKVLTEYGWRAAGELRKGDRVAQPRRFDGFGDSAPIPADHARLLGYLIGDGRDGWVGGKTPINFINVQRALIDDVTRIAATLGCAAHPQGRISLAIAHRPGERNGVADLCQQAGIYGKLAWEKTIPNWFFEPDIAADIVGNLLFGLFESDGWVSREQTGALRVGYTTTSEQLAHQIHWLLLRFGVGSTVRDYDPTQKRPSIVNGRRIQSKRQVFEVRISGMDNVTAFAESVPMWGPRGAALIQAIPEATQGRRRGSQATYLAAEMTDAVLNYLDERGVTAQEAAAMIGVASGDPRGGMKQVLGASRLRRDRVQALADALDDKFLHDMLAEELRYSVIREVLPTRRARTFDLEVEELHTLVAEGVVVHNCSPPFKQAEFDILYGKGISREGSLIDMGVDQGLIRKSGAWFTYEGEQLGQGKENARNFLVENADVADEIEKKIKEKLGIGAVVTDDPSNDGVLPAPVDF

[3] = target: T2, Replicative DNA helicase DnaB (Mycobacterium tuberculosis, UniProt P9WMR3); assay: DnaB intein splicing inhibitors, dose response, biochemical, cell-free fluorescence (AID 449749)
T2 sequence (P9WMR3 whole entry): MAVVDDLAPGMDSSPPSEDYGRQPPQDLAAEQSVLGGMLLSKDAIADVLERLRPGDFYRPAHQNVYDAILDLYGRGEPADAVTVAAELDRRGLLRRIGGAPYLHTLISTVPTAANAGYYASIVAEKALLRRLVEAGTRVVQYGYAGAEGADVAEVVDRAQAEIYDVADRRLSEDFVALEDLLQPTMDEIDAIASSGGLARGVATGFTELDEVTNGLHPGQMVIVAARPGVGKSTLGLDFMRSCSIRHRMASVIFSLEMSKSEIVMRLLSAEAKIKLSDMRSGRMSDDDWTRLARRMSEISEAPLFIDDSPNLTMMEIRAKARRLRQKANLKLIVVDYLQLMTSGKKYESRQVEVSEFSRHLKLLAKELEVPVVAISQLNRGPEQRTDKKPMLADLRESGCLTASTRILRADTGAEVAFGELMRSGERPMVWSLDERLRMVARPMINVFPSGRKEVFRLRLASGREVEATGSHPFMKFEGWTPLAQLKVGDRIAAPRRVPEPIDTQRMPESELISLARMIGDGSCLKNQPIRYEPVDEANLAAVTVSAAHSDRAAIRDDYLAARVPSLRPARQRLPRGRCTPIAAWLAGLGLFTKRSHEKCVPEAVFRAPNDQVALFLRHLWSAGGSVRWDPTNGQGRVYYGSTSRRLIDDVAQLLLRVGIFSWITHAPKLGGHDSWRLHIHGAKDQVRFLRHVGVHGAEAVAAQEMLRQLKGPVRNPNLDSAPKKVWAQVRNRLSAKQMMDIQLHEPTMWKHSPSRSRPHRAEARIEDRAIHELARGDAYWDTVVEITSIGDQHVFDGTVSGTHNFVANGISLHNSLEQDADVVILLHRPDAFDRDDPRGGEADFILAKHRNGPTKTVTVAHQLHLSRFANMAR

Caspase-3 = target: T3, Caspase-3 (Homo sapiens, UniProt P42574); assay: SAR Analysis of small molecule inhibitors of Sentrin-specific proteases (SENPs) using a Caspase-3 Selectivity assay. [Related pubchem assays (depositor defined):AID2540, AID2599, AID434973, AID489001]
T3 sequence (P42574 whole entry): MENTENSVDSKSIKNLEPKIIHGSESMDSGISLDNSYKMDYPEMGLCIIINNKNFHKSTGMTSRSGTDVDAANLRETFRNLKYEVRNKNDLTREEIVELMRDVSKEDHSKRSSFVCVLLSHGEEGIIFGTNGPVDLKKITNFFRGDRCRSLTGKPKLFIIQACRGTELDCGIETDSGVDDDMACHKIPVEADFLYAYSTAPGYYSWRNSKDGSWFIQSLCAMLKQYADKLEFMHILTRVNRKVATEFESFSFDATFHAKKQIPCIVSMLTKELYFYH

[4] = target: T4, Sentrin-specific protease 6 (Homo sapiens, UniProt Q9GZR1); assay: SAR Analysis of small molecule inhibitors of Sentrin-specific protease 6 (SENP6) using a Luminescent assay. [Related pubchem assays (depositor defined):AID2582, AID2599]
T4 sequence (Q9GZR1 whole entry): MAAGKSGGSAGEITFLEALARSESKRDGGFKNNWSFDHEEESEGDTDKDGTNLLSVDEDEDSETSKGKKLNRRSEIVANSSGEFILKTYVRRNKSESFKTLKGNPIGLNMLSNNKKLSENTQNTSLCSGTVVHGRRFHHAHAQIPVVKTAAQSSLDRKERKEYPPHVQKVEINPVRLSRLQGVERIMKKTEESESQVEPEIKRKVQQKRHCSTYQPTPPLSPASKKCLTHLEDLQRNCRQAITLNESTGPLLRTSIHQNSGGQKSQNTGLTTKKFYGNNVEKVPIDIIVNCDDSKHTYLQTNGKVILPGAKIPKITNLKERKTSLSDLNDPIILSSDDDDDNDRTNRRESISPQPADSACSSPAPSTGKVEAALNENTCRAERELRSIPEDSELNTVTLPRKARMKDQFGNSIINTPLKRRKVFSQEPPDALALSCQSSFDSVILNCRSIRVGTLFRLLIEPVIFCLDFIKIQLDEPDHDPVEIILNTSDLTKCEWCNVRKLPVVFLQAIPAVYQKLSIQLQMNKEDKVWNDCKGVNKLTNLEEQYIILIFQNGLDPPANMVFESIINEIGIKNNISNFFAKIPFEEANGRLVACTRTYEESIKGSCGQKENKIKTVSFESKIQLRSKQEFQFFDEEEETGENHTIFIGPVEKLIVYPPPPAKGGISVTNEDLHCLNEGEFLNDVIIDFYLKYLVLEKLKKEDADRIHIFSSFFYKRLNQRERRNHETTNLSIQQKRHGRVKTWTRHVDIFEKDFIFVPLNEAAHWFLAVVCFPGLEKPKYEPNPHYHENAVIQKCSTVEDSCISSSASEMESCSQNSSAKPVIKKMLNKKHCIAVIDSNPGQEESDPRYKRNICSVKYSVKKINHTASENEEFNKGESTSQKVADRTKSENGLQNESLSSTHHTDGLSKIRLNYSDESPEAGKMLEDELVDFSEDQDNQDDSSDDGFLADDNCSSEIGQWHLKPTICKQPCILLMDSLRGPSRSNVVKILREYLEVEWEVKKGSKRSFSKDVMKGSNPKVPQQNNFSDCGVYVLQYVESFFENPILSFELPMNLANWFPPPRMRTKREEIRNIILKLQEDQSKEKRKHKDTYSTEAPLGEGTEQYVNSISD

[5] = target: T5, Sentrin-specific protease 8 (Homo sapiens, UniProt Q96LD8); assay: inhibition of human SENP8 cleavage activity – biochemical, luminescence, SAR follow-up (AID 504501)
T5 sequence (Q96LD8 whole entry): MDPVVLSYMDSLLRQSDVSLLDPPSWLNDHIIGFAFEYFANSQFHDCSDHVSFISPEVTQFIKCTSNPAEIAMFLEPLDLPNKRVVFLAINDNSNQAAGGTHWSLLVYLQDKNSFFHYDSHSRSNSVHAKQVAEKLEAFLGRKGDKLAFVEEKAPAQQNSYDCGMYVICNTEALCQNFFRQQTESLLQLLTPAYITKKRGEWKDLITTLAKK

[6] = target: T6, Sentrin-specific protease 7 (Homo sapiens, UniProt Q9BQF6); assay: inhibition of human SENP7 cleavage activity – biochemical, luminescence, SAR follow-up (AID 504497)
T6 sequence (Q9BQF6 whole entry): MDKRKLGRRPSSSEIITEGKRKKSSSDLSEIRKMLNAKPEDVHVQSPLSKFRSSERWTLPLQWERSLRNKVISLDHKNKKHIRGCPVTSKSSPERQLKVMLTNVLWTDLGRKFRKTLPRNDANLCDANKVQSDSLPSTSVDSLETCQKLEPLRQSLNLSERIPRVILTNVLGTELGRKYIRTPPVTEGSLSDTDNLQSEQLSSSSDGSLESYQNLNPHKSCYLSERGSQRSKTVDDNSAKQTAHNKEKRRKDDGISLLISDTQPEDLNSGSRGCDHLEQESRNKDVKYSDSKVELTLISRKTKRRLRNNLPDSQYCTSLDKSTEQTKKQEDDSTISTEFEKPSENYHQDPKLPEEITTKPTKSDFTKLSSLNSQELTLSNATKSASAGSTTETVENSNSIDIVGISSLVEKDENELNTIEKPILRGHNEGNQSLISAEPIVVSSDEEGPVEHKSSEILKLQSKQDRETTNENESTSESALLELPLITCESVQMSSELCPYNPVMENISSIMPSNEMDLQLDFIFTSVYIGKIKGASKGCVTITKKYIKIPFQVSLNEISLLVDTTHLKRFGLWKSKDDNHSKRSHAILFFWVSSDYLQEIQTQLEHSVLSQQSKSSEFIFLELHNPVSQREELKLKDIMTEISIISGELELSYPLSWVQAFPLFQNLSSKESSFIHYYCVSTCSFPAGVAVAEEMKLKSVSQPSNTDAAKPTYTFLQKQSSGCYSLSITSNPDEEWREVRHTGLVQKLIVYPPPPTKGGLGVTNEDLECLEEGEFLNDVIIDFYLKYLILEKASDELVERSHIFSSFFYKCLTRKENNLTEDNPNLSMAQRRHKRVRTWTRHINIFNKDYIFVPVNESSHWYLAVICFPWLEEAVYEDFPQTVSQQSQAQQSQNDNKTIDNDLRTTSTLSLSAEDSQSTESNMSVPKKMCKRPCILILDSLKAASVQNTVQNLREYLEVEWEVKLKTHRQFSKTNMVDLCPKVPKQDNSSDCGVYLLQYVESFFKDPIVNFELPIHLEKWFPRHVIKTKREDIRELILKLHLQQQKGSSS

[7] = target: T7, Carboxy-terminal domain RNA polymerase II polypeptide A small phosphatase 1 (Homo sapiens, UniProt Q9GZU7); assay: CTDSP1 inhibitors, concentration-response, biochemical, absorbance readout, ultra-high-throughput screen actives (AID 540297)
T7 sequence (Q9GZU7 whole entry): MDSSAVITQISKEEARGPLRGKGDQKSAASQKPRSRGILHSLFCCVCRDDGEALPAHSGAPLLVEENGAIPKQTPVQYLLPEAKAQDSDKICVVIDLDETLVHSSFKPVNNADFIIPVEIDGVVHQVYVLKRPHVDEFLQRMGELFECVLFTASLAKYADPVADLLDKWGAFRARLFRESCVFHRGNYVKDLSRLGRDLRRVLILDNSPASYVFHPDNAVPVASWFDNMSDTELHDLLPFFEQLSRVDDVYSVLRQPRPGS

Chain of 72 kDa type IV collagenase (P08253 whole entry): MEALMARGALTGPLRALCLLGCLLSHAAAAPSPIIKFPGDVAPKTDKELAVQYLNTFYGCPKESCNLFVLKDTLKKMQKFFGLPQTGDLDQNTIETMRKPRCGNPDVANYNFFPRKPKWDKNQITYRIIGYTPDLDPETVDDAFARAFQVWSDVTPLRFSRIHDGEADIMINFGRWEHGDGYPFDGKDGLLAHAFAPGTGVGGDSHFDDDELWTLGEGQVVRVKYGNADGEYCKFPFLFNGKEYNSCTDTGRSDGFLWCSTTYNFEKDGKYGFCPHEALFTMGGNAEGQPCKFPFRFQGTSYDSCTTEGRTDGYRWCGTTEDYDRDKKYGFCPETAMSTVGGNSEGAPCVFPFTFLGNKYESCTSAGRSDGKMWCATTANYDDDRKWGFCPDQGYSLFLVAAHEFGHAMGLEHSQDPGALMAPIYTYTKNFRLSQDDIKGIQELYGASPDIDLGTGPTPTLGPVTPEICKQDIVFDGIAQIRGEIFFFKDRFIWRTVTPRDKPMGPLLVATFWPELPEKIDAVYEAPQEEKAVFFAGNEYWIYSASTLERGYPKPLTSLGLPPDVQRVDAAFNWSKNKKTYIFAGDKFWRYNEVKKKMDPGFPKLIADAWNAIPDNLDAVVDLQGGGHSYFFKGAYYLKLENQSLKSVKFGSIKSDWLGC

Cc1ccc(C(=O)CSc2cc(C)nc(=O)[nH]2)cc1
IC50 [1]: 27.9 µM (active)
IC50 (Prothrombin): 47.5 µM (active)
IC50 [2]: 33.8 µM (active)

O=C(O)CN1C(=O)/C(=C\c2ccc(OC(=O)c3ccco3)cc2)SC1=S
EC50 (Protein RecA): 20.3 µM (active)
AC50 [3]: 165 µM (active)
IC50 [1]: > 100 µM (inactive)
IC50 (Prothrombin): 27.8 µM (active)
IC50 [2]: 25.4 µM (active)

FC(F)(F)c1ccc(N/N=C/c2c[nH]c3ccccc23)cc1
IC50 (Caspase-3): > 99 µM (inactive)
IC50 [4]: > 99 µM (inactive)
IC50 [5]: > 99 µM (inactive)
IC50 [6]: > 99 µM (inactive)

CCN(CC)c1ccc(/C=N/Nc2nc(N3CCCC3)nc(N3CCCC3)n2)cc1
IC50 (Caspase-3): > 99 µM (inactive)
IC50 [4]: > 99 µM (inactive)
IC50 [5]: > 99 µM (inactive)
IC50 [6]: > 99 µM (inactive)

COc1ccc(CCC(=O)Nc2ccc(-c3noc(/C=C/c4ccccc4)n3)cc2)cc1
IC50 (Caspase-3): > 99 µM (inactive)
IC50 [4]: > 99 µM (inactive)
IC50 [5]: > 99 µM (inactive)
IC50 [6]: > 99 µM (inactive)

CC(=O)Nc1ccc(/C(C)=N/NC(=O)c2ccc(COc3ccccc3Cl)o2)cc1
IC50 [1]: > 100 µM (inactive)
IC50 (Prothrombin): 43.6 µM (active)
IC50 [2]: 24.8 µM (active)
IC50 [7]: 7.9 µM (active)

Source: ChEMBL document CHEMBL1201862, “PubChem BioAssay data set” (2004)
